# ChEMBL document CHEMBL3576796, “A Broad Anti-influenza Hybrid Small Molecule That Potently Disrupts the Interaction of Polymerase Acidic Protein-Basic Protein 1 (PA-PB1) Subunits” (J Med Chem, 2015)
# Columns and labels:
# Influenza B virus [1] = assay: Antiviral activity against Influenza B virus B/Lee/40 assessed as reduction in plaque formation after 48 hrs by plaque reduction assay; type: functional, organism-based; settings: B/Lee/1940, 48 h
# [2] = Cytotoxicity against human HEK293T cells assessed as decrease in cell viability by MTT assay; type: cell-based, HEK-293T
# Influenza B virus [3] = assay: Antiviral activity against Influenza B virus B/Bangladesh/333/07 assessed as reduction in plaque formation after 48 hrs by plaque reduction assay; type: functional, organism-based; settings: B/Bangladesh/333/07, 48 h
# [4] = Cytotoxicity against MDCK cells assessed as decrease in cell viability by MTT assay; type: cell-based, Canis lupus familiaris; settings: dog
# [5] = Antiviral activity against Influenza A virus A/Solomon Island/3/06 (H1N1) assessed as reduction in plaque formation after 48 hrs by plaque reduction assay; type: functional, Influenza A virus (A/Solomon Islands/3/2006(H1N1))
# Influenza A virus [6] = type: functional, organism-based; settings: A/Puerto Rico/8/1934(H1N1), MDCK, 48 h
# Influenza B virus [7] = assay: Antiviral activity against Influenza B virus B/Malaysia/2506/04 assessed as reduction in plaque formation after 48 hrs by plaque reduction assay; type: functional; settings: B/Malaysia/2506/2004, 48 h
# [8] = Permeability of the compound assessed as membrane drug retention after 18 hrs by PAMPA assay; type: physicochemical; set-up: concentration or dose not given beside the values
# Liver microsome = assay: Metabolic stability in human liver microsomes assessed as cytochrome-mediated metabolism after 30 mins by HPLC-MS/MS analysis; type: ADME; settings: 0.5 h
# [9] = biological target: PA/PB1 (Influenza A virus (A/Puerto Rico/8/1934(H1N1)), UniProt P03431+P03433)
# Influenza A virus [10] = type: functional, organism-based; settings: A/Puerto Rico/8/1934(H1N1), MDCK, 48 h; remark: listed apart in the source
# [11] = Antiviral activity against Influenza A virus A/Wisconsin/67/05 (H3N2) assessed as reduction in plaque formation after 48 hrs by plaque reduction assay; type: functional, Influenza A virus (A/Wisconsin/67/2005(H3N2))
# [12] = Equilibrium solubility of the compound in phosphate buffer at pH 7.4 after 1 hr; type: physicochemical
# [13] = Permeability of the compound assessed as passive diffusion from donor compartment to acceptor compartment after 18 hrs by PAMPA assay; type: physicochemical; settings: read-out: Peff
SMILES,CC50 [2],CC50 [4],Drug metabolism (Liver microsome),IC50 [9],EC50 (Influenza A virus [10]),other results
Cc1cc(-c2ccccc2)nc2nc(C(=O)Nc3sc4c(c3C(N)=O)CCCCC4)nn12,> 250 µM,> 250 µM,metabolite_notdetected,28 µM,49 µM,EC50 (Influenza B virus [1]): 5 µM; EC50 (Influenza B virus [3]): 12 µM; EC50 [5]: 16 µM; EC50 (Influenza A virus [6]): 8 µM; EC50 (Influenza B virus [7]): 11 µM; Activity [8]: 99%; EC50 [11]: 14 µM
NC(=O)c1c(NC(=O)c2nc3nc(-c4ccccc4)cc(C(F)(F)F)n3n2)sc2c1CCCC2,> 250 µM,–,–,7.5 µM,–,–
CC1=CC(c2ccccc2)n2nc(NC(=O)c3ccccc3F)nc2N1 (stereo not drawn),> 250 µM,> 250 µM,metabolite_notdetected,185 µM,> 100 µM,–
CC1=CC(c2ccccc2)n2nc(NC(=O)c3ccc(-c4ccccc4)cc3)nc2N1 (stereo not drawn),155 µM,> 193 µM,metabolite_notdetected,> 200 µM,28 µM,–
CC1=CC(c2ccccc2)n2nc(NC(=O)c3ccccc3)nc2N1 (stereo not drawn),> 250 µM,> 250 µM,metabolite_notdetected,100 µM,100 µM,–
CCOc1ccc(C(=O)Nc2nc3n(n2)C(c2ccccc2)C=C(C)N3)cc1 (stereo not drawn),237 µM,> 250 µM,metabolite_notdetected,139 µM,100 µM,–
CCCOc1ccc(C(=O)Nc2nc3nc(C)cc(-c4ccccc4)n3n2)cc1,95 µM,> 72 µM,metabolite_notdetected,> 200 µM,> 100 µM,–
Cc1cc(-c2ccccc2)n2nc(C(=O)Nc3ccccc3)nc2n1,110 µM,> 250 µM,metabolite_notdetected,160 µM,42 µM,–
Nc1ccc(O)c2c1C(=O)c1c(N)ccc(O)c1C2=O,> 250 µM,–,–,20.3 µM,14.5 µM,–
NC(=O)c1c(NC(=O)c2cnn3c(C(F)F)cc(-c4ccccc4)nc23)sc2c1CCC2,> 1000 µM,–,–,25.4 µM,–,–
Cc1cc(-c2ccccc2)nc2nc(C(=O)Nc3ccccc3)nn12,> 250 µM,> 250 µM,metabolite_notdetected,128 µM,40 µM,–
COc1cccc(C(=O)Nc2nc3n(n2)C(c2ccccc2)C=C(C)N3)c1 (stereo not drawn),230 µM,> 250 µM,metabolite_notdetected,175 µM,> 100 µM,–
CC1=CC(c2ccccc2)n2nc(NC(=O)c3ccc([N+](=O)[O-])cc3)nc2N1 (stereo not drawn),> 250 µM,> 250 µM,metabolite_notdetected,75 µM,> 100 µM,–
COC(=O)C1=C(N)N(c2cccc(Cl)c2C)C2=C(C(=O)CCC2)C1c1ccc2c(c1)OCO2 (stereo not drawn),> 1000 µM,–,–,30.4 µM,12.2 µM,–
CC1=CC(c2ccccc2)n2nc(NC(=O)CCc3ccccc3)nc2N1 (stereo not drawn),223 µM,> 250 µM,metabolite_notdetected,100 µM,> 100 µM,–
CCc1oc2ccccc2c1C(=O)c1cc(Br)c(O)c(Br)c1 [BENZBROMARONE],–,–,–,–,39 µM,–
CC1=CC(c2ccccc2)n2nc(NC(=O)c3ccc(F)cc3)nc2N1 (stereo not drawn),190 µM,> 250 µM,metabolite_notdetected,138 µM,> 100 µM,–

SMILES,CC50 [2],CC50 [4],Drug metabolism (Liver microsome),IC50 [9],EC50 (Influenza A virus [10]),other results
CC1=CC(c2ccccc2)n2nc(NC(=O)c3ccc(Oc4ccccc4)cc3)nc2N1 (stereo not drawn),73 µM,> 180 µM,metabolite_notdetected,156 µM,59 µM,–
COc1ccccc1C(=O)Nc1nc2n(n1)C(c1ccccc1)C=C(C)N2 (stereo not drawn),240 µM,> 250 µM,metabolite_notdetected,> 200 µM,> 100 µM,–
CC1=CC(c2ccccc2)n2nc(NC(=O)c3ccc4ccccc4c3)nc2N1 (stereo not drawn),154 µM,> 115 µM,metabolite_notdetected,> 200 µM,41 µM,–
O=[N+]([O-])c1ccc(Oc2ccc(-n3cc(CO)nn3)cc2)c2nonc12,40 µM,–,–,35 µM,1 µM,–
NC(=O)c1ncn([C@@H]2O[C@H](CO)[C@@H](O)[C@H]2O)n1 [RIBAVIRIN],> 250 µM,> 250 µM,–,–,–,–
Cc1cc(-c2ccccc2)n2nc(NC(=O)c3ccccc3)nc2n1,> 250 µM,> 250 µM,metabolite_notdetected,> 200 µM,> 100 µM,–
CCCCOc1ccc(C(=O)Nc2nc3n(n2)C(c2ccccc2)C=C(C)N3)cc1 (stereo not drawn),> 250 µM,> 196 µM,metabolite_notdetected,37 µM,100 µM,–
COc1ccc(C(=O)Nc2nc3n(n2)C(c2ccccc2)C=C(C)N3)cc1 (stereo not drawn),> 250 µM,> 240 µM,metabolite_notdetected,153 µM,> 100 µM,solubility thermodynamic at 1 h [12]: 13 µg/mL; Activity [8]: 57%; Papp at 18 h [13]: 3.52 ×10⁻⁶ cm/s
CC1=CC(c2ccccc2)n2nc(NC(=O)c3cccc(F)c3)nc2N1 (stereo not drawn),220 µM,> 250 µM,metabolite_notdetected,156 µM,> 100 µM,–
COc1ccc(C(=O)Nc2nc3nc(-c4ccccc4)cc(C)n3n2)cc1,109 µM,> 250 µM,metabolite_notdetected,150 µM,> 100 µM,–
CCCCc1ccc(C(=O)Nc2nc3n(n2)C(c2ccccc2)C=C(C)N3)cc1 (stereo not drawn),> 250 µM,> 250 µM,metabolite_notdetected,48 µM,100 µM,–
CC1=CC(c2ccccc2)n2nc(NC(=O)c3ccc(Cl)cc3)nc2N1 (stereo not drawn),> 250 µM,> 250 µM,metabolite_notdetected,95 µM,> 100 µM,–
COc1ccc(C(=O)Nc2nc3nc(C)cc(-c4ccccc4)n3n2)cc1,187 µM,> 250 µM,metabolite_notdetected,> 200 µM,86 µM,–
CCCOc1ccc(C(=O)Nc2nc3nc(-c4ccccc4)cc(C)n3n2)cc1,52 µM,> 247 µM,metabolite_notdetected,158 µM,> 100 µM,–
CSCC[C@H](N)C(=O)N[C@@H](CC(=O)O)C(=O)N[C@H](C(=O)N[C@@H](CC(N)=O)C(=O)N1CCC[C@H]1C(=O)N[C@H](C(=O)N[C@@H](CC(C)C)C(=O)N[C@@H](CC(C)C)C(=O)N[C@@H](Cc1ccccc1)C(=O)N[C@@H](CC(C)C)C(=O)N[C@@H](CCCCN)C(=O)N[C@H](C(=O)N1CCC[C@H]1C(=O)N[C@@H](C)C(=O)N[C@@H](CCC(N)=O)C(=O)O)C(C)C)[C@@H](C)O)C(C)C,> 100 µM,–,–,–,–,–
CC1=CC(c2ccccc2)n2nc(NC(=O)c3ccc(OC(C)C)cc3)nc2N1 (stereo not drawn),> 250 µM,> 250 µM,metabolite_notdetected,75 µM,> 100 µM,–
N#CC(c1ccc(Cl)cc1)c1c(Cl)cc(-n2ncc(=O)[nH]c2=O)cc1Cl (stereo not drawn) [DICLAZURIL],–,–,–,–,31 µM,–
